Results as given in patent US9211311B2, “Methods for the treatment of neurodegenerative disorders” (priority 2010, dated 2015).

System: male patients exhibiting PD-induced symptoms
Assay: Motor portion of the Unified Parkinson's Disease Rating Scale (UPDRS) before and after intranasal oxytocin
Format: in vivo, human
Conditions: 40 IU intranasal oxytocin; for UPDRS total score after oxytocin therapy: off medications, reassessed 45 minutes to one hour after dosing, items rated 0-4, lower = less severe
Method: The participants were in their “off” period, wherein they were taken off their current medications prior to oxytocin therapy. During the experiment, each participant was given 40 IU ([…]) of intranasal oxytocin. The synthetic form of oxytocin was administered by way of an inhaler, such as those used in nasal spray decongestants. Five pumps of the inhaler were dispensed into the left nostril of the participants; the participants were asked to inhale deeply through the nose. Five more pumps were dispensed into the right nostril of the participants and again the participants were asked to inhale deeply. This process was repeated so that, in total, the participants received forty pumps of the inhaler, twenty per nostril.
Immediately following oxytocin infusion, the participants were given a battery of physical and cognitive tests, lasting about fifteen to twenty minutes. These tests included the Motor portion of the Unified Parkinson's Disease Rating Scale (UPDRS) as well as a cognitive test used to establish the mental and emotional status of the participants. For each test, the participants were rated on a scale of zero to four, with four being the symptoms at its most severe state.
After administration of oxytocin, the participants were asked to wait for 45 minutes to one hour, wherein they passed the time by reading, conversing or simply relaxing. Subsequently, the motor skills of the participants were assessed again using the UPDRS. The administration of the UPDRS the first time was to quantifiably evaluate the patient's symptoms uninfluenced by oxytocin infusion, whereas the second administration of the UPDRS test served to quantifiably assess the motor condition of the patient under the influence of oxytocin.
The participants remained under direct supervision throughout the experiment to ensure their comfort and well-being. Once the experimental procedure was completed, the participants were able to leave the clinic and were asked to continue taking their normal medications. The participants were not in any way restricted in their activities for the rest of the day.

lasting effects due to the administration of oxytocin (three male PD patients, observed under supervision throughout the experiment): not any lasting effects apparent
Compound: CC[C@H](C)[C@@H]1NC(=O)[C@H](Cc2ccc(O)cc2)NC(=O)[C@@H](N)CSSC[C@@H](C(=O)N2CCC[C@H]2C(=O)N[C@@H](CC(C)C)C(=O)NCC(N)=O)NC(=O)[C@H](CC(N)=O)NC(=O)[C@H](CCC(N)=O)NC1=O [oxytocin]
UPDRS total score after oxytocin therapy (participant 1, initial total score 24): 17
decrease in UPDRS total score after oxytocin therapy (participant 1, versus initial total score 24): 30%
UPDRS total score after oxytocin therapy (participant 2, initial total score 37.5): 34.5
decrease in UPDRS total score after oxytocin therapy (participant 2, versus initial total score 37.5): 8%
UPDRS total score after oxytocin therapy (participant 3, initial total score 17.5): 9.5
decrease in UPDRS total score after oxytocin therapy (participant 3, versus initial total score 17.5): 50%
